Assay results as given in patent publication US8883835B2, “Plant disease controlling composition and method for controlling plant disease” (priority 2008, dated 2014).

Tested on: Sclerotinia sclerotiorum
Experiment: Controlling test against Sclerotinia sclerotiorum on cucumber by foliage spraying (Test Example 1)
Format: in vivo
Details: single compound, 12° C. and high humidity for 6 days
Method: A sand loam was filled into a plastic pot, and cucumber (Sagamihanjiro) was seeded, and grown in a greenhouse for 12 days. A flowable of the compound I, and an emulsifiable concentrate of any one of the compound II to the compound IV were diluted with water separately, and they were tank-mixed to prepare a tank mix solution containing the compound I and any one of the compounds II to IV at predetermined concentrations. The tank mix solution was subjected to foliage spraying so that it was sufficiently adhered to a leaf surface of the cucumber. After spraying, the plant was air-dried, and a PDA medium containing hyphae of Sclerotinia sclerotiorum was placed on the cucumber leaf surface. After seeding, this was placed under 12° C. and high humidity for 6 days, the controlling effect was investigated. Separately, for comparison, a flowable of the compound I, or an emulsifiable concentrate of any one compound of the compound II to the compound IV was diluted with water to prepare a water-diluted solution containing the predetermined amount of any one of compounds I to IV, and the similar controlling test was carried out. Further, for calculating an effective value, an onset area rate (ratio of onset area occupied in leaf area examined) in each treatment group was determined. The effective value was calculated by the Equation 1. […] A: Onset area rate of non-treated group B: Onset area rate of treated group In general, a effective value expected in treatment by mixing given two kinds of active ingredient compounds, i.e., an expected effective value is calculated by a Colby calculation equation of the Equation 2. E=X+Y−(X×Y)/100 “Equation 2” X: Effective value obtained by treatment with M ppm of the compound I Y: Effective value obtained by treatment with N ppm of the compound II, III or IV E: Effective value expected in treatment with M ppm of the compound I and N ppm of the compound II, III or IV (expected effective value) In addition, a synergistic effect was shown herein by a value calculated by the following Equation 3.

[1] = active ingredient concentration 3.1 ppm

Question: How did the Actual effective value [1] turn out when `Fc1ccc([C@]2(Cn3cncn3)O[C@H]2c2ccccc2Cl)cc1` (racemic) [Compound IV, (2RS,3SR)-1-[3-(2-chlorophenyl)-2,3-epoxy-2-(4-fluorophenyl)propyl]-1H-1,2,4-triazole] was run?
Answer: 6%

Question: How did the Actual effective value [1] turn out when `C=CCSC(=O)n1c(N)c(-c2ccccc2C)c(=O)n1C(C)C` [Compound I] was run?
Answer: 58%

Question: `Clc1ccc(C2(Cn3cncn3)CC(Br)CO2)c(Cl)c1` (stereo not drawn) [Compound III, 1-[(2RS,4RS:2RS,4SR)-4-bromo-2-(2,4-dichlorophenyl)tetrahydrofurfuryl]-1H-1,2,4-triazole] was tested. Which Actual effective value [1] did it give?
Answer: 1%

Question: Which results are given for `CC1(C)CCC(Cc2ccc(Cl)cc2)C1(O)Cn1cncn1` (stereo not drawn) [Compound II, (1RS,5RS;1RS,5SR)-5-(4-chlorobenzyl)-2,2-dimethyl-1-(1H-1,2,4-triazol-1-ylmethyl)cyclopentanol]?
Answer: Actual effective value (active ingredient concentration 0.8 ppm): 0%; Actual effective value [1]: 5%
